Laboratory results: PubChem BioAssay AID1963873 (Molecular Pharmacology Branch, DTP, NCI, 2024)

Test system: 276233-004-R-J1-PDC KRAS spheroids with HUVEC/MSC, viability
Assay: Anticancer human tumor 276233-004-R-J1-PDC patient-derived colon adenocarcinoma cell line growth inhibition [KRAS2]
Conditions: for viability, T/C: stronger effect = lower value
Text: Multicellular complex tumor spheroid response to RAS pathway inhibitors in combination with a targeted agents in patient-derived cell lines with oncogenic KRAS variants from multiple cancer types
A high-throughput screen of multi-cell type tumor spheroids was designed to identify active combinations of targeted small molecules and KRAS pathway inhibitors. Complex spheroids include a stromal component modeled by human endothelial cells (HUVEC) and fibroblasts modeled by human mesenchymal stem cells (MSCs). The concentration ranges selected for each drug and investigational agent were based upon clinically achievable concentrations if the clinical Cmax of the agent was known.
Compounds. The drugs and investigational agents: BI-3406 (NSC825286), BAY-293 (NSC824723), batoprotafib (TNO155; NSC825523), sotorasib (AMG 510; NSC818433), MRTX1257 (NSC819558), elimusertib (BAY 1895344; NSC800525), molibresib (GSK525762; NSC774829), temuterkib (LY3214996; NSC803410), venetoclax (NSC766270), alisertib (NSC759677), olaparib (NSC753686), talazoparib (NSC767125), erdafitinib (NSC781556), ipatasertib (NSC767898), cabozantinib (NSC761068), nintedanib (NSC756659), abemaciclib (NSC768073), docetaxel (NSC628503), trametinib (NSC758246), and sapanisertib (NSC764658) were obtained from the National Cancer Institute (NCI) Developmental Therapeutics Program Chemical Repository. The FDA-approved anticancer drug set is available from the Developmental Therapeutics Program. […] The stock solutions were prepared in dimethyl sulfoxide (DMSO, Sigma-Aldrich, St. Louis, MO, cat. D2650) at 800-fold the tested concentration and stored at -70 degrees C prior to their use. All drugs and investigational agents were tested over a range starting from a high concentration at or near the clinical Cmax and decreasing in half-log increments. If the clinical Cmax for an agent had not been determined, the highest concentration tested was 10 microM.
Cell Culture. All cells were maintained in an incubator at 37 degrees C and 5% CO2 with 95% humidity. The PDC lines were cultured according to standard operating procedures established by the NCI PDMR (https://pdmr.cancer.gov/sops/default.htm). Briefly, all PDCs were thawed and cultured in Matrigel-coated flasks prepared with a working solution of 1X Ham's F-12 nutrient mix, without supplementation (Invitrogen, Waltham, MA, cat. 11765054), 100 U/mL penicillin-streptomycin (Invitrogen, cat. 15140122), and 2.5% Matrigel (Corning Inc., Corning, NY, cat. 354248) for the first three passages. All PDCs were cultured in complete DMEM/F-12 media containing advanced DMEM/F-12 (Invitrogen, cat. 12634028), 4.9% defined fetal bovine serum, heat inactivated (HyClone Laboratories Inc., Logan, UT, cat. SH30070.03HI), 389 ng/mL hydrocortisone (Sigma-Aldrich, cat. H4001), 9.7 ng/mL human EGF recombinant protein (Invitrogen, cat. PHG0313), 23.4 microg/mL adenine (Sigma-Aldrich, cat. A2786), 97.3 U/mL penicillin-streptomycin (Invitrogen, cat. 15140122), 1.9 mM L-glutamine (Invitrogen, cat. 25030081), and 9.7 microM Y-27632 dihydrochloride (Tocris Bioscience, Bristol, United Kingdom, cat. 1254). The PDCs were cultured in complete DMEM/F12 media without 9.7 microM Y-27632 dihydrochloride for at least two passages prior to the screen. The established cell line HOP-62 was cultured in RPMI 1640 medium, HEPES (Invitrogen, cat. 22400105) with 10% defined fetal bovine serum (HyClone Laboratories Inc., cat. SH30070.03) and 2 mM L-glutamine (Invitrogen, cat. 25030081). The pooled donor HUVEC were cultured in endothelial cell growth medium 2 (PromoCell, Heidelberg, Germany, cat. C-22011) and the hMSC were cultured in mesenchymal stem cell growth medium 2 (PromoCell, cat. C-28009). For all experiments, HUVEC and hMSC were used at passages </=5, while the malignant cell lines were used at passages </=15. […]

[1] = curve of first compound, second compound 0.1 µM
[2] = curve of first compound, second compound 0.316 µM
[3] = curve of first compound, second compound 1 µM
[4] = curve of first compound, second compound 3.16 µM
[5] = curve of first compound, second compound 10 µM
[6] = second compound 0.1 µM, first compound 0.0316 µM
[7] = second compound 0.1 µM, first compound 0.1 µM
[8] = second compound 0.1 µM, first compound 0.316 µM
[9] = second compound 0.1 µM, first compound 1 µM
[10] = second compound 0.1 µM, first compound 3.16 µM
[11] = second compound 0.1 µM, first compound 10 µM
[12] = second compound 0.316 µM, first compound 0.0316 µM
[13] = second compound 0.316 µM, first compound 0.1 µM
[14] = second compound 0.316 µM, first compound 0.316 µM
[15] = second compound 0.316 µM, first compound 1 µM
[16] = second compound 0.316 µM, first compound 3.16 µM
[17] = second compound 0.316 µM, first compound 10 µM
[18] = second compound 1 µM, first compound 0.0316 µM
[19] = second compound 1 µM, first compound 0.1 µM
[20] = second compound 1 µM, first compound 0.316 µM
[21] = second compound 1 µM, first compound 1 µM
[22] = second compound 1 µM, first compound 3.16 µM
[23] = second compound 1 µM, first compound 10 µM
[24] = second compound 3.16 µM, first compound 0.0316 µM
[25] = second compound 3.16 µM, first compound 0.1 µM
[26] = second compound 3.16 µM, first compound 0.316 µM
[27] = second compound 3.16 µM, first compound 1 µM
[28] = second compound 3.16 µM, first compound 3.16 µM
[29] = second compound 3.16 µM, first compound 10 µM
[30] = second compound 10 µM, first compound 0.0316 µM
[31] = second compound 10 µM, first compound 0.1 µM
[32] = second compound 10 µM, first compound 0.316 µM
[33] = second compound 10 µM, first compound 1 µM
[34] = second compound 10 µM, first compound 3.16 µM
[35] = second compound 10 µM, first compound 10 µM
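Note: cells exposed to agents for seven days before viability read.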
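Throughout, for viability, T/C: 100% = DMSO vehicle control wells and lower values mean fewer viable cells.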

| SMILES | IC50 [1] [µM] | IC50 [2] [µM] | IC50 [3] [µM] | IC50 [4] [µM] | IC50 [5] [µM] | viability, T/C [6] [%] | viability, T/C [7] [%] | viability, T/C [8] [%] | viability, T/C [9] [%] | viability, T/C [10] [%] | viability, T/C [11] [%] | viability, T/C [12] [%] | viability, T/C [13] [%] | viability, T/C [14] [%] | viability, T/C [18] [%] | viability, T/C [19] [%] | viability, T/C [24] [%] | viability, T/C [25] [%] | viability, T/C [30] [%] | viability, T/C [31] [%] | also measured |
| --- | --- | --- | --- | --- | --- | --- | --- | --- | --- | --- | --- | --- | --- | --- | --- | --- | --- | --- | --- | --- | --- |
| CC1(C)CCC(CN2CCN(c3ccc(C(=O)NS(=O)(=O)c4ccc(NCC5CCOCC5)c([N+](=O)[O-])c4)c(Oc4cnc5[nH]ccc5c4)c3)CC2)=C(c2ccc(Cl)cc2)C1 + C=CC(=O)N1CCN(c2nc(=O)n(-c3c(C)ccnc3C(C)C)c3nc(-c4c(O)cccc4F)c(F)cc23)C(C)C1 | 8.94 | 9.58 | 8.59 | 9.15 | > 10 | 84.2 | 105 | 97.6 | 93.6 | 107 | 44.9 | 98.4 | 108 | 104 | 92.8 | 108 | 80.1 | 96.9 | 96.6 | 73.2 | viability, T/C [15]: 105%; viability, T/C [16]: 92.2%; viability, T/C [17]: 47.9%; viability, T/C [20]: 91.4%; viability, T/C [21]: 109%; viability, T/C [22]: 84.8%; viability, T/C [23]: 44.7%; viability, T/C [26]: 88.7%; viability, T/C [27]: 102%; viability, T/C [28]: 89.6%; viability, T/C [29]: 46.5%; viability, T/C [32]: 69.3%; viability, T/C [33]: 84.2%; viability, T/C [34]: 81.1%; viability, T/C [35]: 57% |
| CC1(C)CCC(CN2CCN(c3ccc(C(=O)NS(=O)(=O)c4ccc(NCC5CCOCC5)c([N+](=O)[O-])c4)c(Oc4cnc5[nH]ccc5c4)c3)CC2)=C(c2ccc(Cl)cc2)C1 + CC1OCC2(CCN(c3cnc(Sc4ccnc(N)c4Cl)c(N)n3)CC2)C1N | > 10 | 5.97 | 3.18 | 2.57 | 3.2 | 78.6 | 91.9 | 72.4 | 116 | 74.8 | 54.9 | 89.7 | 77.9 | 89.2 | 67.3 | 75 | 69.1 | 62.6 | 60.1 | 72 | viability, T/C [15]: 81%; viability, T/C [16]: 63.7%; viability, T/C [17]: 39%; viability, T/C [20]: 85.7%; viability, T/C [21]: 62.3%; viability, T/C [22]: 51.6%; viability, T/C [23]: 27.2%; viability, T/C [26]: 77.5%; viability, T/C [27]: 81.1%; viability, T/C [28]: 45%; viability, T/C [29]: 24.8%; viability, T/C [32]: 65.8%; viability, T/C [33]: 72.7%; viability, T/C [34]: 50.4%; viability, T/C [35]: 14.4% |
| C=CC(=O)N1CCN(c2nc(=O)n(-c3c(C)ccnc3C(C)C)c3nc(-c4c(O)cccc4F)c(F)cc23)C(C)C1 (stereo not drawn) | – | – | – | – | – | – | – | – | – | – | – | – | – | – | – | – | – | – | – | – | IC50 (compound alone, run of 07/12/2021): > 10 µM; IC50 (compound alone, run of 07/19/2021): > 10 µM; IC50 (compound alone, run of 07/26/2021): > 10 µM |
| Cn1ncnc1[C@H]1c2n[nH]c(=O)c3cc(F)cc(c23)N[C@@H]1c1ccc(F)cc1 + C=CC(=O)N1CCN(c2nc(=O)n(-c3c(C)ccnc3C(C)C)c3nc(-c4c(O)cccc4F)c(F)cc23)C(C)C1 | > 0.1 | > 0.1 | > 0.1 | > 0.1 | > 0.1 | 95.1 | 91.7 | – | – | – | – | 94.4 | 92 | – | 95.5 | 94.9 | 97.8 | 133 | 83.4 | 88.4 | viability, T/C (second compound 0.1 µM, first compound 0.000316 µM): 89.7%; viability, T/C (second compound 0.1 µM, first compound 0.001 µM): 98%; viability, T/C (second compound 0.1 µM, first compound 0.00316 µM): 94.8%; viability, T/C (second compound 0.1 µM, first compound 0.01 µM): 99.5%; viability, T/C (second compound 0.316 µM, first compound 0.000316 µM): 99.6%; viability, T/C (second compound 0.316 µM, first compound 0.001 µM): 111%; viability, T/C (second compound 0.316 µM, first compound 0.00316 µM): 101%; viability, T/C (second compound 0.316 µM, first compound 0.01 µM): 100%; viability, T/C (second compound 1 µM, first compound 0.000316 µM): 98.6%; viability, T/C (second compound 1 µM, first compound 0.001 µM): 121%; viability, T/C (second compound 1 µM, first compound 0.00316 µM): 138%; viability, T/C (second compound 1 µM, first compound 0.01 µM): 93.9%; viability, T/C (second compound 3.16 µM, first compound 0.000316 µM): 98.4%; viability, T/C (second compound 3.16 µM, first compound 0.001 µM): 116%; viability, T/C (second compound 3.16 µM, first compound 0.00316 µM): 117%; viability, T/C (second compound 3.16 µM, first compound 0.01 µM): 92.5%; viability, T/C (second compound 10 µM, first compound 0.000316 µM): 88.2%; viability, T/C (second compound 10 µM, first compound 0.001 µM): 91.3%; viability, T/C (second compound 10 µM, first compound 0.00316 µM): 114%; viability, T/C (second compound 10 µM, first compound 0.01 µM): 85.7% |
